# Measurements as given in publication PMC6562543 (Marine Drugs, 2019).
# Experiments:
# [1] = system: mice; parameters: species or system Kunming mice; details: mouse, in vivo, iv
# [2] = system: mice; parameters: species or system Kunming mice (ICR mice for intranasal treatment); details: mouse, in vivo
# [3] = rat, in vivo, cited from earlier work
# [4] = system: mice; details: mouse, in vivo; SEM
# [5] = in vivo; cited from earlier work
smiles,measurement,setting,value
"CSCC[C@@H]1NC(=O)[C@H](CC(C)C)NC(=O)[C@H](CCCNC(=N)N)NC(=O)[C@H](CO)NC(=O)[C@@H]2CSSC[C@@H]3NC(=O)[C@H](CO)NC(=O)CNC(=O)[C@H]([C@@H](C)O)NC(=O)[C@H](CSSC[C@H](N)C(=O)N[C@@H](CCCCN)C(=O)NCC(=O)N[C@@H](CCCCN)C(=O)NCC(=O)N[C@@H](C)C(=O)N[C@@H](CCCCN)C(=O)N2)NC(=O)[C@H](CSSC[C@@H](C(N)=O)NC(=O)[C@H](CCCCN)NC(=O)CNC(=O)[C@H](CO)NC(=O)[C@H](CCCNC(=N)N)NC3=O)NC(=O)[C@H](CC(=O)O)NC(=O)[C@H](Cc2ccc(O)cc2)NC1=O [MVIIA, ω-Conotoxin MVIIA]",effect on writhing numbers,[1],failed to attenuate writhing numbers
same,time after which the effect disappeared,[2],≤ 4 h
same,time of maximal antinociceptive effect,[2],1 h
same,antinociceptive effect,[2]; iv,no effect
same,AUC0-6 in CSF,[3]; iv,4.98 ± 0.97 µg·min/mL
same,Cmax in CSF,[3]; iv,37.78 ± 6.8 ng/mL
same,Tmax in CSF,[3]; iv,~ 2 h
same,bioavailability in CSF following intranasal versus intravenous administration,[3],two fold greater
same,stay time on rotarod,[4],74.5 ± 20.28 s
same,antinociceptive potency relative to intrathecal morphine,[5],100 times
same,potency relative to morphine,[5],100 times
